The subject of assay [1] is Enterococcus faecalis. Put plainly: MIC90 broth microdilution. In kind it is cell-based. The conditions noted are these: ATCC19433, ATCC 19433, 35° C., 18 hours. For orientation: In broth dilution the organism is exposed to a series of concentrations in liquid medium.
In assay [2] the test system is Mycobacterium tuberculosis. Particulars: values marked with literature reference (^4,11 or ^15), cited from earlier work.
For assay [3], the system named is Staphylococcus aureus methicillin-sensitive. The experiment in a line: MIC90 broth microdilution. The conditions noted are these: ATCC29213, ATCC 29213, 35° C., 18 hours. The assay is classed as cell-based.
The test system of the next assay is Klebsiella pneumoniae. Put plainly: MIC90 broth microdilution. In kind it is cell-based. The conditions noted are these: for MIC90: Klebsiella pneumoniae, ATCC35657, ATCC 35657, 35° C., 18 hours.
Another assay concerns Pseudomonas aeruginosa. Put plainly: MIC90 broth microdilution. The assay is classed as cell-based. Particulars: for MIC90: Pseudomonas aeruginosa, PA14, 35° C., 18 hours.
Assay [4] has as its system Acinetobacter baumannii ATCC 19606. Put plainly: MIC90 broth microdilution. The assay is classed as cell-based. The conditions noted are these: ATCC19606, strain ATCC 19606, 35° C., 18 hours.
Assay [5] relates to Acinetobacter baumannii ACBA. The experiment in a line: MIC90 broth microdilution. The assay is classed as cell-based. The conditions noted are these: patient isolate ACBA, 35° C., 18 hours.
The test system of assay [6] is Staphylococcus aureus. Particulars: general statement on linezolid; cited from earlier work.
The test system of assay [7] is Acinetobacter baumannii 6M-1b. The experiment in a line: MIC90 broth microdilution. In kind it is cell-based. The conditions noted are these: 6M1B, environmental strain 6M-1b, 35° C., 18 hours.
For a further assay, the system named is Enterobacter cloacae. Put plainly: MIC90 broth microdilution. The assay is classed as cell-based. The conditions noted are these: for MIC90: Enterobacter cloacae, ATCC13047, ATCC 13047, 35° C., 18 hours.
Assay [8] has as its system Mycobacterium tuberculosis. Put plainly: MIC90 broth macrodilution. Particulars: H37Rv; 7H9 broth, fourteen days at 37° C.
A further assay has as its system Mycobacterium avium. The experiment in a line: MIC90 broth microdilution. The assay is classed as cell-based. Particulars: for MIC90: Mycobacterium avium, 168 h, strain 104, seven days at 37° C.
Another assay has as its system Mycobacterium abscessus. The experiment in a line: MIC90 broth microdilution. In kind it is cell-based. Particulars: for MIC90: Mycobacteroides abscessus, ATCC19977, 72 h, ATCC 19977, 30° C., 3 days.
Assay [9] deals with methicillin-sensitive Staphylococcus aureus. Put plainly: Checkerboard titration assay. In kind it is cell-based. Particulars: T145 combined with doripenem, biapenem, faropenem and tebipenem; 1x to 1/16x MIC90.
In assay [10] the test system is Staphylococcus aureus.
Assay [11] has as its system methicillin-resistant Staphylococcus aureus. The experiment in a line: Checkerboard titration assay. In kind it is cell-based. Particulars: T145 combined with doripenem, biapenem, faropenem and tebipenem; 1x to 1/16x MIC90.
Assay [12] has as its system Mycobacterium tuberculosis. Put plainly: Minimum bactericidal concentration (MBC99.9). In kind it is cell-based.
Assay [13] relates to Enterococcus faecalis. The experiment in a line: Minimum bactericidal concentration (MBC99.9). Particulars: up to 8 times MIC90. In kind it is cell-based.
The test system of assay [14] is Enterococcus faecalis.
For assay [15], the system named is Staphylococcus aureus. Put plainly: Minimum bactericidal concentration (MBC99.9). The assay is classed as cell-based. Particulars: up to 8 times MIC90.
The test system of assay [16] is methicillin-resistant Staphylococcus aureus ATCC 43300. The experiment in a line: MIC90 determination. The assay is classed as cell-based. Particulars: ATCC43300, methicillin-resistant strain ATCC 43300.
In assay [17] the test system is Enterococcus faecalis. Put plainly: Checkerboard titration assay. In kind it is cell-based. The conditions noted are these: T145 combined with doripenem, biapenem, faropenem and tebipenem; 1x to 1/16x MIC90.
Assay [18] relates to Mycobacterium tuberculosis. Put plainly: Checkerboard titration assay. Particulars: T145 combined with isoniazid or rifampicin. In kind it is cell-based. An excerpt: The inventors also evaluated if any drug-drug interaction existed between T145 and isoniazid or rifampicin, two drugs that comprise the backbone of tuberculosis treatment today, against Mycobacterium tuberculosis using the checkerboard assay as described above. Any antagonism or synergy between T145 and isoniazid or rifampicin is not observed, and therefore that activity of T145 against Mycobacterium tuberculosis is indifferent to that of isoniazid or rifampicin.
This assay is a modification of the broth dilution assay and was carried out as described. In summary, each well containing 10^5 CFU received two drugs each in two fold dilutions below their respective MIC90. The suspensions are incubated at 37° C. and growth was evaluated as described above. Fractional Inhibitory Concentration (FIC) of a drug in a combination that inhibits bacterial growth is the concentration of the drug in the well divided by MIC90 of the drug if used alone. The sum of FIC of each drug in the combination is the FIC index. In each well where bacterial growth was absent, FIC index was calculated and an average FIC index was determined. Drug-drug antagonism was inferred if average FIC index is >2, indifference if 0.5-2.0 and synergy if ≤ 0.5.

Setting [19] is: Acinetobacter baumannii, read-out: MIC90.

Values after ≈ are worked out from the molar mass of the structure shown. Read-outs that look alike come from different tables or passages of the source. Some results are limits rather than exact numbers.

The term MIC90 denotes an inhibitory concentration at the 90% level, which refers to growth in some studies and to a panel of isolates in others. Regarding `C[C@@H](O)[C@H]1C(=O)N2C(C(=O)[O-])=C(SC3Cn4cnc[n+]4C3)[C@H](C)[C@H]12` (stereo partly shown) [Biapenem], the MIC90 against Enterococcus faecalis [1] was 0.25 to 0.5 µg/mL (≈ 0.713 to 1.43 µM); in assay [2] it was 2.5-5.0 ^15 µg/ml; in [3], 0.007 to 0.015 µg/mL (≈ 0.02 to 0.0428 µM).

In the case of `C[C@@H](O)[C@H]1C(=O)N2C(C(=O)O)=C(S[C@@H]3CN[C@H](CNS(N)(=O)=O)C3)[C@H](C)[C@H]12` [Doripenem], the figures for the MIC90 (against Enterococcus faecalis [1]; in assay [2]; in assay [3]) were 0.25 to 0.5 µg/mL (≈ 0.595 to 1.19 µM), 2.5-5.0 ^15 µg/ml and 0.003 to 0.007 µg/mL (≈ 0.00713 to 0.0166 µM), respectively.

For `C[C@@H](O)[C@H]1C(=O)N2C(C(=O)O)=C([C@H]3CCCO3)S[C@H]12` [Faropenem], the MIC90 against Enterococcus faecalis [1] is 0.25 to 0.5 µg/mL (≈ 0.876 to 1.75 µM); in assay [2] it was 2.5-5.0 ^15 µg/ml; in assay [3], 0.015 to 0.03 µg/mL (≈ 0.0526 to 0.105 µM).

Turning to `CC(=O)NC[C@H]1CN(c2ccc(N3CCOCC3)c(F)c2)C(=O)O1` [Linezolid], the MIC90 was 16 to 32 µg/mL (≈ 47.4 to 94.9 µM) in the assay on Klebsiella pneumoniae; more than 64 µg/mL against Pseudomonas aeruginosa; 1 to 2 µg/mL (≈ 2.96 to 5.93 µM) against Enterococcus faecalis [1]; 0.2-2.0 ^4,11 µg/ml in [2]; 0.5 to 2.0 µg/mL in assay [2] (listed as linezolid); more than 64 µg/mL in assay [4]. For the same compound, the MIC90 in [3] was 1 to 2 µg/mL (≈ 2.96 to 5.93 µM); in assay [5] (setting [19]), more than 64 µg/mL; in assay [5], more than 64 µg/mL; in assay [7], 0.25 to 0.5 µg/mL (≈ 0.741 to 1.48 µM); in the assay with Enterobacter cloacae, more than 64 µg/mL. In the assay on Staphylococcus aureus [6], the “bactericidal or bacteriostatic activity” value is reported as “bacteriostatic”.

Consider `C[C@@H](O)[C@H]1C(=O)N2C(C(=O)O)=C(S[C@@H]3CN[C@H](C(=O)N(C)C)C3)[C@H](C)[C@H]12` [Meropenem], for which the MIC90 in assay [8] is 4 to 8 µg/mL; in the assay on Klebsiella pneumoniae, less than 0.06 µg/mL; in the assay on Pseudomonas aeruginosa, 0.25 to 0.5 µg/mL (≈ 0.652 to 1.3 µM); against Enterococcus faecalis [1] it was 4 to 8 µg/mL (≈ 10.4 to 20.9 µM); in assay [4], more than 64 µg/mL; in [3], 0.06 to 0.13 µg/mL (≈ 0.156 to 0.339 µM). Also, the MIC90 in assay [5] (setting [19]) was more than 64 µg/mL; in assay [5], more than 64 µg/mL; in the assay on Mycobacterium avium, more than 64 µg/mL; against Mycobacterium abscessus, more than 64 µg/mL; in [7], 1 to 2 µg/mL (≈ 2.61 to 5.22 µM); against Enterobacter cloacae it was 0.13 to 0.25 µg/mL (≈ 0.339 to 0.652 µM).

The MBC is the lowest tested concentration that kills the bacteria rather than only halting them. In the case of `CC(=O)NC[C@H]1CN(c2ccc3c(c2)Oc2ccccc2O3)C(=O)O1` [T145, N-(((S)-3-(dibenzo[b,e][1,4]dioxin-7-yl)-2-oxooxazolidin-5-yl)methyl)acetamide], the “drug-drug interaction (synergy, indifference or antagonism)” value (in assay [9]; in assay [11]; in the assay on Enterococcus faecalis [17]; in [18]) was “indifferent” in each case. For the same compound, the MIC90 was 0.5 to 1.0 µg/mL in assay [8]; more than 64 µg/mL with Klebsiella pneumoniae; more than 64 µg/mL in the assay on Pseudomonas aeruginosa; 0.25 to 0.5 µg/mL (≈ 0.735 to 1.47 µM) in the assay with Enterococcus faecalis [1]; 32 to 64 µg/mL (≈ 94 to 188 µM) in assay [4]; 0.5 to 1 µg/mL (≈ 1.47 to 2.94 µM) in assay [3]. Further, the MIC90 is 0.5 to 1 µg/mL (≈ 1.47 to 2.94 µM) in assay [16]; more than 64 µg/mL in assay [5] (setting [19]); more than 64 µg/mL in assay [5]; more than 64 µg/mL in the assay on Mycobacterium avium; more than 64 µg/mL against Mycobacterium abscessus; 0.25 to 0.5 µg/mL (≈ 0.735 to 1.47 µM) in [7]. Besides, in the assay on Enterobacter cloacae, the MIC90 is more than 64 µg/mL. Besides, the “selection of spontaneous resistant mutants” value with Staphylococcus aureus [10] and in the assay on Enterococcus faecalis [14] was “did not form classical distinct single colonies” each time. Moreover, the “antimicrobial activity (in words)” value in the assay with Klebsiella pneumoniae, in the assay with Pseudomonas aeruginosa, in the assay with Mycobacterium avium, in the assay with Mycobacterium abscessus and in the assay with Enterobacter cloacae was “no activity” in each case. The “bactericidal or bacteriostatic activity” value in [12] (1, 2, 4 and 8 times MIC90) is recorded as “bactericidal”; with Enterococcus faecalis [13] it was “bacteriostatic”; in the assay with Staphylococcus aureus [15], “bacteriostatic”. This compound displayed an MBC in assay [12] (Mycobacterium tuberculosis, concentration at which 99.9% of bacilli are killed) of 2 µg/mL (≈ 5.88 µM).

Regarding `C[C@@H](O)[C@H]1C(=O)N2C(C(=O)O)=C(SC3CN(C4=NCCS4)C3)[C@H](C)[C@H]12` [Tebipenem], the MIC90 against Enterococcus faecalis [1] is 0.25 to 0.5 µg/mL (≈ 0.652 to 1.3 µM); in assay [2], 1.25-2.5 ^15 µg/ml; in assay [3], 0.03 to 0.06 µg/mL (≈ 0.0782 to 0.156 µM).

The values are drawn from patent US20230099803A1, “OXAZOLIDINONE FOR TREATMENT OF INFECTIONS WITH MYCOBACTERIUM TUBERCULOSIS” (priority 2017, published 2023).
